# Source: publication PMC7156458, “Synthetic biology based construction of biological activity-related library of fungal decalin-containing diterpenoid pyrones” (Nature Communications, 2020)
# Molecular target: Aβ42 (Homo sapiens, UniProt P05067)
# Experiment: Th-T (thioflavin-T) assay of Aβ42 aggregation
# Assay type: biochemical
# Conditions: for Th-T assay plate reading, mean of three wells (Supplementary Fig. 47): source data, Ab alone and No Ab as controls
# Aβ42, sequence (P05067 672-713): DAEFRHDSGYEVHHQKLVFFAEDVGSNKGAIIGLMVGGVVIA
compound,measurement,setting,value
C=C1CCC2C(C)(CC(=O)C=C(C)C)C(O)CCC2(C)C1Cc1c(OC)oc(CO)c(C)c1=O (centres unmarked) [Compound 19],"Th-T fluorescence, mean of three wells","Aβ42 aggregation time course, reading M117",3.6075
same,"Th-T fluorescence, mean of three wells","Aβ42 aggregation time course, reading M118",3.626
same,"Th-T fluorescence, mean of three wells","Aβ42 aggregation time course, reading M119",3.587
same,"Th-T fluorescence, mean of three wells","Aβ42 aggregation time course, reading M120",3.625
same,"Th-T fluorescence, mean of three wells","Aβ42 aggregation time course, reading M121",3.6213
same,"Th-T fluorescence, mean of three wells","Aβ42 aggregation time course, reading M122",3.6222
same,"Th-T fluorescence, mean of three wells","Aβ42 aggregation time course, reading M123",3.606
same,"Th-T fluorescence, mean of three wells","Aβ42 aggregation time course, reading M124",3.5846
same,"Th-T fluorescence, mean of three wells","Aβ42 aggregation time course, reading M125",3.61
same,"Th-T fluorescence, mean of three wells","Aβ42 aggregation time course, reading M126",3.596
same,"Th-T fluorescence, mean of three wells","Aβ42 aggregation time course, reading M127",3.587
same,"Th-T fluorescence, mean of three wells","Aβ42 aggregation time course, reading M128",3.613
same,"Th-T fluorescence, mean of three wells","Aβ42 aggregation time course, reading M129",3.627
same,"Th-T fluorescence, mean of three wells","Aβ42 aggregation time course, reading M130",3.59
same,"Th-T fluorescence, mean of three wells","Aβ42 aggregation time course, reading M131",3.596
same,"Th-T fluorescence, mean of three wells","Aβ42 aggregation time course, reading M132",3.652
same,"Th-T fluorescence, mean of three wells","Aβ42 aggregation time course, reading M133",3.618
same,"Th-T fluorescence, mean of three wells","Aβ42 aggregation time course, reading M134",3.586
same,"Th-T fluorescence, mean of three wells","Aβ42 aggregation time course, reading M135",3.587
same,"Th-T fluorescence, mean of three wells","Aβ42 aggregation time course, reading M136",3.617
same,"Th-T fluorescence, mean of three wells","Supplementary Fig. 47, reading M137",3.599
same,"Th-T fluorescence, mean of three wells","Supplementary Fig. 47, reading M138",3.596
same,"Th-T fluorescence, mean of three wells","Supplementary Fig. 47, reading M139",3.59
same,"Th-T fluorescence, mean of three wells","Supplementary Fig. 47, reading M140",3.5958
same,"Th-T fluorescence, mean of three wells","Supplementary Fig. 47, reading M141",3.577
same,"Th-T fluorescence, mean of three wells","Supplementary Fig. 47, reading M142",3.567
same,"Th-T fluorescence, mean of three wells","Supplementary Fig. 47, reading M143",3.559
same,"Th-T fluorescence, mean of three wells","Supplementary Fig. 47, reading M144",3.573
same,"Th-T fluorescence, mean of three wells","Supplementary Fig. 47, reading M145",3.546
same,"Th-T fluorescence, mean of three wells","Supplementary Fig. 47 source data, measurement M37 of time course",3.411
same,"Th-T fluorescence, mean of three wells","Supplementary Fig. 47 source data, measurement M38 of time course",3.42
same,"Th-T fluorescence, mean of three wells","Supplementary Fig. 47 source data, measurement M39 of time course",3.449
same,"Th-T fluorescence, mean of three wells","Supplementary Fig. 47 source data, measurement M40 of time course",3.484
same,"Th-T fluorescence, mean of three wells","Supplementary Fig. 47 source data, measurement M41 of time course",3.495
same,"Th-T fluorescence, mean of three wells","Supplementary Fig. 47 source data, measurement M42 of time course",3.511
same,"Th-T fluorescence, mean of three wells","Supplementary Fig. 47 source data, measurement M43 of time course",3.5042
same,"Th-T fluorescence, mean of three wells","Supplementary Fig. 47 source data, measurement M44 of time course",3.529
same,"Th-T fluorescence, mean of three wells","Supplementary Fig. 47 source data, measurement M45 of time course",3.546
same,"Th-T fluorescence, mean of three wells","Supplementary Fig. 47 source data, measurement M46 of time course",3.545
same,"Th-T fluorescence, mean of three wells","Supplementary Fig. 47 source data, measurement M47 of time course",3.542
same,"Th-T fluorescence, mean of three wells","Supplementary Fig. 47 source data, measurement M48 of time course",3.567
same,"Th-T fluorescence, mean of three wells","Supplementary Fig. 47 source data, measurement M49 of time course",3.564
same,"Th-T fluorescence, mean of three wells","Supplementary Fig. 47 source data, measurement M50 of time course",3.566
same,"Th-T fluorescence, mean of three wells","Supplementary Fig. 47 source data, measurement M51 of time course",3.621
same,"Th-T fluorescence, mean of three wells","Supplementary Fig. 47 source data, measurement M52 of time course",3.57
same,"Th-T fluorescence, mean of three wells","Supplementary Fig. 47 source data, measurement M53 of time course",3.596
same,"Th-T fluorescence, mean of three wells","Supplementary Fig. 47 source data, measurement M54 of time course",3.5732
same,"Th-T fluorescence, mean of three wells","Supplementary Fig. 47 source data, measurement M55 of time course",3.592
same,"Th-T fluorescence, mean of three wells","Supplementary Fig. 47 source data, measurement M56 of time course",3.662
same,"Th-T assay plate reading, mean of three wells (Supplementary Fig. 47)",measurement M1,0.2658
same,"Th-T assay plate reading, mean of three wells (Supplementary Fig. 47)",measurement M2,0.2823
same,"Th-T assay plate reading, mean of three wells (Supplementary Fig. 47)",measurement M3,0.3173
same,"Th-T assay plate reading, mean of three wells (Supplementary Fig. 47)",measurement M4,0.3889
same,"Th-T assay plate reading, mean of three wells (Supplementary Fig. 47)",measurement M5,0.4637
same,"Th-T assay plate reading, mean of three wells (Supplementary Fig. 47)",measurement M6,0.5676
same,"Th-T assay plate reading, mean of three wells (Supplementary Fig. 47)",measurement M7,0.5832
same,"Th-T assay plate reading, mean of three wells (Supplementary Fig. 47)",measurement M8,0.6497
same,"Th-T assay plate reading, mean of three wells (Supplementary Fig. 47)",measurement M9,0.6755
same,"Th-T assay plate reading, mean of three wells (Supplementary Fig. 47)",measurement M10,0.7219
same,"Th-T assay plate reading, mean of three wells (Supplementary Fig. 47)",measurement M11,0.7495
same,"Th-T assay plate reading, mean of three wells (Supplementary Fig. 47)",measurement M12,0.7862
same,"Th-T assay plate reading, mean of three wells (Supplementary Fig. 47)",measurement M13,0.8322
same,"Th-T assay plate reading, mean of three wells (Supplementary Fig. 47)",measurement M14,0.8734
same,"Th-T assay plate reading, mean of three wells (Supplementary Fig. 47)",measurement M15,0.9399
same,"Th-T assay plate reading, mean of three wells (Supplementary Fig. 47)",measurement M16,1.015
same,"Th-T fluorescence, mean of three wells","reading M17, Supplementary Fig. 47 source data",1.1695
same,"Th-T fluorescence, mean of three wells","reading M18, Supplementary Fig. 47 source data",1.449
same,"Th-T fluorescence, mean of three wells","reading M19, Supplementary Fig. 47 source data",1.7884
same,"Th-T fluorescence, mean of three wells","reading M20, Supplementary Fig. 47 source data",2.128
same,"Th-T fluorescence, mean of three wells","reading M21, Supplementary Fig. 47 source data",2.459
same,"Th-T fluorescence, mean of three wells","reading M22, Supplementary Fig. 47 source data",2.644
same,"Th-T fluorescence, mean of three wells","reading M23, Supplementary Fig. 47 source data",2.778
same,"Th-T fluorescence, mean of three wells","reading M24, Supplementary Fig. 47 source data",2.868
same,"Th-T fluorescence, mean of three wells","reading M25, Supplementary Fig. 47 source data",2.94
same,"Th-T fluorescence, mean of three wells","reading M26, Supplementary Fig. 47 source data",3.016
same,"Th-T fluorescence, mean of three wells","reading M27, Supplementary Fig. 47 source data",3.079
same,"Th-T fluorescence, mean of three wells","reading M28, Supplementary Fig. 47 source data",3.14
same,"Th-T fluorescence, mean of three wells","reading M29, Supplementary Fig. 47 source data",3.171
same,"Th-T fluorescence, mean of three wells","reading M30, Supplementary Fig. 47 source data",3.2173
same,"Th-T fluorescence, mean of three wells","reading M31, Supplementary Fig. 47 source data",3.256
same,"Th-T fluorescence, mean of three wells","reading M32, Supplementary Fig. 47 source data",3.313
same,"Th-T fluorescence, mean of three wells","reading M33, Supplementary Fig. 47 source data",3.3097
same,"Th-T fluorescence, mean of three wells","reading M34, Supplementary Fig. 47 source data",3.333
same,"Th-T fluorescence, mean of three wells","reading M35, Supplementary Fig. 47 source data",3.364
same,"Th-T fluorescence, mean of three wells","reading M36, Supplementary Fig. 47 source data",3.374
same,"Th-T fluorescence, mean of three wells","time course, reading M57",3.606
same,"Th-T fluorescence, mean of three wells","time course, reading M58",3.638
same,"Th-T fluorescence, mean of three wells","time course, reading M59",3.598
same,"Th-T fluorescence, mean of three wells","time course, reading M60",3.6035
same,"Th-T fluorescence, mean of three wells","time course, reading M61",3.616
same,"Th-T fluorescence, mean of three wells","time course, reading M62",3.642
same,"Th-T fluorescence, mean of three wells","time course, reading M63",3.645
same,"Th-T fluorescence, mean of three wells","time course, reading M64",3.635
same,"Th-T fluorescence, mean of three wells","time course, reading M65",3.622
same,"Th-T fluorescence, mean of three wells","time course, reading M66",3.629
same,"Th-T fluorescence, mean of three wells","time course, reading M67",3.626
same,"Th-T fluorescence, mean of three wells","time-course reading M97, Supplementary Fig. 47 source data",3.5997
same,"Th-T fluorescence, mean of three wells","time-course reading M98, Supplementary Fig. 47 source data",3.623
same,"Th-T fluorescence, mean of three wells","time-course reading M99, Supplementary Fig. 47 source data",3.625
same,"Th-T fluorescence, mean of three wells","time-course reading M100, Supplementary Fig. 47 source data",3.601
same,"Th-T fluorescence, mean of three wells","time-course reading M101, Supplementary Fig. 47 source data",3.5892
same,"Th-T fluorescence, mean of three wells","time-course reading M102, Supplementary Fig. 47 source data",3.633
same,"Th-T fluorescence, mean of three wells","time-course reading M103, Supplementary Fig. 47 source data",3.645
same,"Th-T fluorescence, mean of three wells","time-course reading M104, Supplementary Fig. 47 source data",3.661
same,"Th-T fluorescence, mean of three wells","time-course reading M105, Supplementary Fig. 47 source data",3.626
same,"Th-T fluorescence, mean of three wells","time-course reading M106, Supplementary Fig. 47 source data",3.655
same,"Th-T fluorescence, mean of three wells","time-course reading M107, Supplementary Fig. 47 source data",3.608
same,"Th-T fluorescence, mean of three wells","time-course reading M108, Supplementary Fig. 47 source data",3.642
same,"Th-T fluorescence, mean of three wells","time-course reading M109, Supplementary Fig. 47 source data",3.6107
same,"Th-T fluorescence, mean of three wells","time-course reading M110, Supplementary Fig. 47 source data",3.642
same,"Th-T fluorescence, mean of three wells","time-course reading M111, Supplementary Fig. 47 source data",3.621
same,"Th-T fluorescence, mean of three wells","time-course reading M112, Supplementary Fig. 47 source data",3.604
same,"Th-T fluorescence, mean of three wells","time-course reading M113, Supplementary Fig. 47 source data",3.595
same,"Th-T fluorescence, mean of three wells","time-course reading M114, Supplementary Fig. 47 source data",3.63
same,"Th-T fluorescence, mean of three wells","time-course reading M115, Supplementary Fig. 47 source data",3.6287
same,"Th-T fluorescence, mean of three wells","time-course reading M116, Supplementary Fig. 47 source data",3.617
